Data taken from patent US6387268B1 (priority 1998, dated 2002).
Read-outs that look alike come from different tables or passages of the source.

Target: rat α3/β4 nAChR (Rattus norvegicus, UniProt P04757+P12392)
Details: 60 pM [3H]-EB; for retention volume of [3H]-EB: 9.5 ml without competitor
Description: The cultured cells in which rat α3/β4 subtype of neural nicotinic acetylcholine receptor (nAChR) were expressed by transfected cell line KXα3β4R2 were harvested in 30 ml of Tris-HCl buffer (50 mM, pH 7.4) and homogenized for 20 minutes with a Brinkman Polytron homogenizer. The homogenates were centrifuged at 35,000×g for 10 minutes and the supernatant was discarded. The resulting pellets were suspended in 6 ml of 2% cholate in Tris-HCl buffer (50 mM, pH 7.4) and stirred for two hours in an ice bath. After centrifugation at 35,000×g, the supernatant was collected for the immobilization. IAM packing materials (200 mg) were washed three times by centrifugation with Tris-HCl buffer (50 mM, pH 7.4). The IAM materials were suspended in 4 ml of receptor-detergent solution, stirred for one hour at room temperature and dialyzed against 2×1 L buffer for 24 hours at 4° C. When detergents were depleted from the mixture, the receptors were hydrophobically entrapped in the phospholipid monolayer on the surface of IAM materials. The receptor-IAM materials were washed with buffer by centrifugation at 4000×g.
The NR(α4β2)-IAM packing materials were packed in an HR glass column (Pharmacia Biotech) and connected with an HPLC pump. […] The elution profile was monitored by an on-line radioactivity HPLC detector.
The resulting column was used in the LC study of drug-NR binding using frontal chromatographic techniques with [^3H]-epibatidine (EB) as the marker ligand. A series of [^3H]-EB concentrations ranging from 60 pM to 600 pM were pumped through the (α3/β4)NR-IAM column2 to obtain elution profiles showing front and plateau regions. The concentration of the [^3H]-EB in the column eluent was monitored by an LC on-line radioactivity detector.
The binding of the [^3H]-EB on the (α3/β4)NR-IAM column was be altered by the addition of competitive NR-ligands to the mobile phase.

rat α3/β4 nAChR, sequence (P04757 26-499): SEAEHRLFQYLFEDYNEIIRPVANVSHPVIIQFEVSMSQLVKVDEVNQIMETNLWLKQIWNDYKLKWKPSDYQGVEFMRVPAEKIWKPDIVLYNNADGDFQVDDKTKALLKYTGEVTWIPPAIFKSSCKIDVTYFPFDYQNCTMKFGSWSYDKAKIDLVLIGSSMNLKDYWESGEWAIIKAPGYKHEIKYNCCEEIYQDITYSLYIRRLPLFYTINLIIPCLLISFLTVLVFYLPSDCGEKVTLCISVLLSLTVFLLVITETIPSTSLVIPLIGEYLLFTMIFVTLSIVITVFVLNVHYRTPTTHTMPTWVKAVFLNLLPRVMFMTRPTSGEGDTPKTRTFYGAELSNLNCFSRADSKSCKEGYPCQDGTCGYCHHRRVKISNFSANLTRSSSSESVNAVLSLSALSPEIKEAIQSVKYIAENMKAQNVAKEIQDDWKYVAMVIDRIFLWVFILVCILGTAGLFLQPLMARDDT
rat α3/β4 nAChR, sequence (P12392 22-495 limits assumed): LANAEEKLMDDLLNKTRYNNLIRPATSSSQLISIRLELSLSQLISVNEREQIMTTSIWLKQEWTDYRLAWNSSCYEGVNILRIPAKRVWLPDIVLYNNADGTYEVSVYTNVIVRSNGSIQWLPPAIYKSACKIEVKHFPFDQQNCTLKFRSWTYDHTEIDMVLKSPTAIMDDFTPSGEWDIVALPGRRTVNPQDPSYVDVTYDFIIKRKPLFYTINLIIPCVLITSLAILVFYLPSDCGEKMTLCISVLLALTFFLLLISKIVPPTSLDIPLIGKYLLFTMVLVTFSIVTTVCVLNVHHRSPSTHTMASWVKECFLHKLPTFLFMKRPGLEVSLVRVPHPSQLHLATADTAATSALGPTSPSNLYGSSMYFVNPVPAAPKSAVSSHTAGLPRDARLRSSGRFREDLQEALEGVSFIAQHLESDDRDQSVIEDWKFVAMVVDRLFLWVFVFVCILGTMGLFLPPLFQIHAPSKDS

SMILES: Clc1ccc(C2CC3CCC2N3)cn1 (racemic) [(±)-EB, epibatidine]
- mobile phase concentration required to decrease the retention volume of [3H]-EB from 9.5 ml to 6 ml: 120 pM

SMILES: c1cncc(OC[C@@H]2CCN2)c1 [A85380]
- mobile phase concentration required to decrease the retention volume of [3H]-EB from 9.5 ml to 6 ml: 1.7e+10 pM
- retention volume of [3H]-EB (10 nM A85380 in mobile phase): 6.6 mL
- retention volume of [3H]-EB (100 nM A85380 in mobile phase): 1.9 mL

SMILES: C[N+](C)(C)CCOC(N)=O [carbachol]
- mobile phase concentration required to decrease the retention volume of [3H]-EB from 9.5 ml to 6 ml: 1.3e+06 pM

SMILES: CN1CCCC1c1cccnc1 (stereo not drawn) [nicotine]
- mobile phase concentration required to decrease the retention volume of [3H]-EB from 9.5 ml to 6 ml: 45000 pM
